Patent US12564193B2, “Isoxazoline-substituted benzamide derivative, and preparation method therefor and use thereof” (SHANDONG UNITED PESTICIDE INDUSTRY CO., LTD., priority 2020, dated 2026)
Where two headings read alike, the source gives them in different places.

Legend:
Format in all cases: in vivo
Tetranychus cinnabarinus = test: Acaricidal activity, slide immersion of female adult mites: Tetranychus cinnabarinus; conditions: read-out: fatality rate on Tetranychus cinnabarinus
In short: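 Female adult mites stuck dorsally on tape on slides (4 rows of 10), dipped 5 s in test solution, excess blotted, incubated 24 h. Mites with immobile feet on brush touch scored dead; fatality rate calculated.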

Pieris rapae = test: Insecticidal activity, spray on pre-infested radish plants: Pieris rapae; conditions: 144 h, read-out: fatality rate on Pieris rapae
In short: (§1)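 Mortality was assessed visually after 6 days at 25° C and 70% relative humidity, following spray application of the test compound to pre-infested 12-15 day old radish plants. Each test was run in triplicate.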

Plutella xylostella = test: Insecticidal activity, spray on pre-infested radish plants: Plutella xylostella; conditions: Plutella xylostella, 144 h, read-out: fatality rate on Plutella xylostella
In short: (§2)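 Compounds were dissolved in a suitable solvent such as acetone, methanol or DMSO and sprayed onto 12-15 day old radish plants pre-infested with 30-40 pests by the leaf-cutting method. After drying for 1 hour under mesh, plants were held 6 days at 25° C and 70% relative humidity before mortality was scored visually.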

[1] = test system: Frankliniella occidentalis; test: Insecticidal activity, spray on pre-infested radish plants: Frankliniella occidentalis; conditions: Frankliniella occidentalis, 144 h, read-out: fatality rate on Frankliniella occidentalis
In short: as §2

Cnaphalocrocis medinalis = test: Insecticidal activity, spray on pre-infested radish plants: Cnaphalocrocis medinalis; conditions: 144 h, read-out: fatality rate on Cnaphalocrocis medinalis
In short: as §1

Spodoptera litura = test: Insecticidal activity, spray on pre-infested radish plants: Spodoptera litura; conditions: 144 h, read-out: fatality rate on Spodoptera litura
In short: as §2

Mythimna separata = test: Insecticidal activity, spray on pre-infested radish plants: Mythimna separata; conditions: Mythimna separata, 144 h, read-out: fatality rate on Mythimna separata
In short: as §2

Chilo suppressalis = test: Insecticidal activity, spray on pre-infested radish plants: Chilo suppressalis; conditions: Chilo suppressalis, 144 h, read-out: fatality rate on Chilo suppressalis
In short: as §2

[2] = dose 1 ppm, immersion 5 seconds, checked after 24 hours
[3] = dose 10 ppm, immersion 5 seconds, checked after 24 hours
[4] = dose 25 ppm, immersion 5 seconds, checked after 24 hours

Cc1cc(C2=NOC(c3cc(Cl)c(F)c(Cl)c3)(C(F)(F)F)C2)ccc1C(=O)NCCc1ccc(Cl)nc1 (stereo not drawn) [Compound 15]
> 80%: pest or weed control at 1 ppm (Tetranychus cinnabarinus; 24 h) | pest or weed control at 10 ppm (Tetranychus cinnabarinus; 24 h) | pest or weed control at 25 ppm (Tetranychus cinnabarinus; 24 h) | pest or weed control at 0.1 ppm (Pieris rapae) | pest or weed control at 1 ppm (Pieris rapae) | pest or weed control at 10 ppm (Pieris rapae) | pest or weed control at 0.1 ppm (Plutella xylostella) | pest or weed control at 1 ppm (Plutella xylostella) | pest or weed control at 10 ppm (Plutella xylostella) | pest or weed control at 1 ppm [1] | pest or weed control at 10 ppm [1] | pest or weed control at 25 ppm [1] | pest or weed control at 0.1 ppm (Cnaphalocrocis medinalis) | pest or weed control at 1 ppm (Cnaphalocrocis medinalis) | pest or weed control at 10 ppm (Cnaphalocrocis medinalis) | pest or weed control at 0.1 ppm (Spodoptera litura) | pest or weed control at 1 ppm (Spodoptera litura) | pest or weed control at 10 ppm (Spodoptera litura) | pest or weed control at 0.1 ppm (Mythimna separata) | pest or weed control at 1 ppm (Mythimna separata) | pest or weed control at 10 ppm (Mythimna separata) | pest or weed control at 0.1 ppm (Chilo suppressalis) | pest or weed control at 1 ppm (Chilo suppressalis) | pest or weed control at 10 ppm (Chilo suppressalis)

Cc1cc(C2=NOC(c3cc(F)c(F)c(F)c3)(C(F)(F)F)C2)ccc1C(=O)NCCc1ccc(Cl)nc1 (stereo not drawn) [Compound 16]
> 80%: pest or weed control at 1 ppm (Tetranychus cinnabarinus; [2]) | pest or weed control at 10 ppm (Tetranychus cinnabarinus; [3]) | pest or weed control at 25 ppm (Tetranychus cinnabarinus; [4]) | pest or weed control at 0.1 ppm (Pieris rapae; dose 0.1 ppm, spray, 6 days) | pest or weed control at 1 ppm (Pieris rapae; dose 1 ppm, spray, 6 days) | pest or weed control at 10 ppm (Pieris rapae; dose 10 ppm, spray, 6 days) | pest or weed control at 0.1 ppm (Plutella xylostella; dose 0.1 ppm, spray, 6 days) | pest or weed control at 1 ppm (Plutella xylostella; dose 1 ppm, spray, 6 days) | pest or weed control at 10 ppm (Plutella xylostella; dose 10 ppm, spray, 6 days) | pest or weed control at 1 ppm ([1]; dose 1 ppm, spray, 6 days) | pest or weed control at 10 ppm ([1]; dose 10 ppm, spray, 6 days) | pest or weed control at 25 ppm ([1]; dose 25 ppm, spray, 6 days) | pest or weed control at 0.1 ppm (Cnaphalocrocis medinalis; dose 0.1 ppm, spray, 6 days) | pest or weed control at 1 ppm (Cnaphalocrocis medinalis; dose 1 ppm, spray, 6 days) | pest or weed control at 10 ppm (Cnaphalocrocis medinalis; dose 10 ppm, spray, 6 days) | pest or weed control at 0.1 ppm (Spodoptera litura; dose 0.1 ppm, spray, 6 days) | pest or weed control at 1 ppm (Spodoptera litura; dose 1 ppm, spray, 6 days) | pest or weed control at 10 ppm (Spodoptera litura; dose 10 ppm, spray, 6 days) | pest or weed control at 0.1 ppm (Mythimna separata; dose 0.1 ppm, spray, 6 days) | pest or weed control at 1 ppm (Mythimna separata; dose 1 ppm, spray, 6 days) | pest or weed control at 10 ppm (Mythimna separata; dose 10 ppm, spray, 6 days) | pest or weed control at 0.1 ppm (Chilo suppressalis; dose 0.1 ppm, spray, 6 days) | pest or weed control at 1 ppm (Chilo suppressalis; dose 1 ppm, spray, 6 days) | pest or weed control at 10 ppm (Chilo suppressalis; dose 10 ppm, spray, 6 days)

Cc1cc(C2=NOC(c3cc(Cl)c(F)c(Cl)c3)(C(F)(F)F)C2)ccc1C(=O)NCCc1cnccc1C(F)(F)F (stereo not drawn) [Compound 17]
> 80%: pest or weed control at 1 ppm (Tetranychus cinnabarinus; 24 h) | pest or weed control at 10 ppm (Tetranychus cinnabarinus; 24 h) | pest or weed control at 25 ppm (Tetranychus cinnabarinus; 24 h) | pest or weed control at 0.1 ppm (Pieris rapae) | pest or weed control at 1 ppm (Pieris rapae) | pest or weed control at 10 ppm (Pieris rapae) | pest or weed control at 0.1 ppm (Plutella xylostella) | pest or weed control at 1 ppm (Plutella xylostella) | pest or weed control at 10 ppm (Plutella xylostella) | pest or weed control at 1 ppm [1] | pest or weed control at 10 ppm [1] | pest or weed control at 25 ppm [1] | pest or weed control at 0.1 ppm (Cnaphalocrocis medinalis) | pest or weed control at 1 ppm (Cnaphalocrocis medinalis) | pest or weed control at 10 ppm (Cnaphalocrocis medinalis) | pest or weed control at 0.1 ppm (Spodoptera litura) | pest or weed control at 1 ppm (Spodoptera litura) | pest or weed control at 10 ppm (Spodoptera litura) | pest or weed control at 0.1 ppm (Mythimna separata) | pest or weed control at 1 ppm (Mythimna separata) | pest or weed control at 10 ppm (Mythimna separata) | pest or weed control at 0.1 ppm (Chilo suppressalis) | pest or weed control at 1 ppm (Chilo suppressalis) | pest or weed control at 10 ppm (Chilo suppressalis)

Cc1cc(C2=NOC(c3cc(F)c(F)c(F)c3)(C(F)(F)F)C2)ccc1C(=O)NCCc1cnccc1C(F)(F)F (stereo not drawn) [Compound 18]
> 80%: pest or weed control at 1 ppm (Tetranychus cinnabarinus; [2]) | pest or weed control at 10 ppm (Tetranychus cinnabarinus; [3]) | pest or weed control at 25 ppm (Tetranychus cinnabarinus; [4]) | pest or weed control at 0.1 ppm (Pieris rapae; dose 0.1 ppm, spray, 6 days) | pest or weed control at 1 ppm (Pieris rapae; dose 1 ppm, spray, 6 days) | pest or weed control at 10 ppm (Pieris rapae; dose 10 ppm, spray, 6 days) | pest or weed control at 0.1 ppm (Plutella xylostella; dose 0.1 ppm, spray, 6 days) | pest or weed control at 1 ppm (Plutella xylostella; dose 1 ppm, spray, 6 days) | pest or weed control at 10 ppm (Plutella xylostella; dose 10 ppm, spray, 6 days) | pest or weed control at 1 ppm ([1]; dose 1 ppm, spray, 6 days) | pest or weed control at 10 ppm ([1]; dose 10 ppm, spray, 6 days) | pest or weed control at 25 ppm ([1]; dose 25 ppm, spray, 6 days) | pest or weed control at 0.1 ppm (Cnaphalocrocis medinalis; dose 0.1 ppm, spray, 6 days) | pest or weed control at 1 ppm (Cnaphalocrocis medinalis; dose 1 ppm, spray, 6 days) | pest or weed control at 10 ppm (Cnaphalocrocis medinalis; dose 10 ppm, spray, 6 days) | pest or weed control at 0.1 ppm (Spodoptera litura; dose 0.1 ppm, spray, 6 days) | pest or weed control at 1 ppm (Spodoptera litura; dose 1 ppm, spray, 6 days) | pest or weed control at 10 ppm (Spodoptera litura; dose 10 ppm, spray, 6 days) | pest or weed control at 0.1 ppm (Mythimna separata; dose 0.1 ppm, spray, 6 days) | pest or weed control at 1 ppm (Mythimna separata; dose 1 ppm, spray, 6 days) | pest or weed control at 10 ppm (Mythimna separata; dose 10 ppm, spray, 6 days) | pest or weed control at 0.1 ppm (Chilo suppressalis; dose 0.1 ppm, spray, 6 days) | pest or weed control at 1 ppm (Chilo suppressalis; dose 1 ppm, spray, 6 days) | pest or weed control at 10 ppm (Chilo suppressalis; dose 10 ppm, spray, 6 days)

Cc1cc(C2=NOC(c3cc(Cl)c(F)c(Cl)c3)(C(F)(F)F)C2)ccc1C(=O)NCCc1ncc(C(F)(F)F)cc1Cl (stereo not drawn) [Compound 19]
> 80%: pest or weed control at 1 ppm (Tetranychus cinnabarinus; 24 h) | pest or weed control at 10 ppm (Tetranychus cinnabarinus; 24 h) | pest or weed control at 25 ppm (Tetranychus cinnabarinus; 24 h) | pest or weed control at 0.1 ppm (Pieris rapae) | pest or weed control at 1 ppm (Pieris rapae) | pest or weed control at 10 ppm (Pieris rapae) | pest or weed control at 0.1 ppm (Plutella xylostella) | pest or weed control at 1 ppm (Plutella xylostella) | pest or weed control at 10 ppm (Plutella xylostella) | pest or weed control at 1 ppm [1] | pest or weed control at 10 ppm [1] | pest or weed control at 25 ppm [1] | pest or weed control at 0.1 ppm (Cnaphalocrocis medinalis) | pest or weed control at 1 ppm (Cnaphalocrocis medinalis) | pest or weed control at 10 ppm (Cnaphalocrocis medinalis) | pest or weed control at 0.1 ppm (Spodoptera litura) | pest or weed control at 1 ppm (Spodoptera litura) | pest or weed control at 10 ppm (Spodoptera litura) | pest or weed control at 0.1 ppm (Mythimna separata) | pest or weed control at 1 ppm (Mythimna separata) | pest or weed control at 10 ppm (Mythimna separata) | pest or weed control at 0.1 ppm (Chilo suppressalis) | pest or weed control at 1 ppm (Chilo suppressalis) | pest or weed control at 10 ppm (Chilo suppressalis)

Cc1cc(C2=NOC(c3cc(F)c(F)c(F)c3)(C(F)(F)F)C2)ccc1C(=O)NCCc1ncc(C(F)(F)F)cc1Cl (stereo not drawn) [Compound 20]
> 80%: pest or weed control at 1 ppm (Tetranychus cinnabarinus; [2]) | pest or weed control at 10 ppm (Tetranychus cinnabarinus; [3]) | pest or weed control at 25 ppm (Tetranychus cinnabarinus; [4]) | pest or weed control at 0.1 ppm (Pieris rapae; dose 0.1 ppm, spray, 6 days) | pest or weed control at 1 ppm (Pieris rapae; dose 1 ppm, spray, 6 days) | pest or weed control at 10 ppm (Pieris rapae; dose 10 ppm, spray, 6 days) | pest or weed control at 0.1 ppm (Plutella xylostella; dose 0.1 ppm, spray, 6 days) | pest or weed control at 1 ppm (Plutella xylostella; dose 1 ppm, spray, 6 days) | pest or weed control at 10 ppm (Plutella xylostella; dose 10 ppm, spray, 6 days) | pest or weed control at 1 ppm ([1]; dose 1 ppm, spray, 6 days) | pest or weed control at 10 ppm ([1]; dose 10 ppm, spray, 6 days) | pest or weed control at 25 ppm ([1]; dose 25 ppm, spray, 6 days) | pest or weed control at 0.1 ppm (Cnaphalocrocis medinalis; dose 0.1 ppm, spray, 6 days) | pest or weed control at 1 ppm (Cnaphalocrocis medinalis; dose 1 ppm, spray, 6 days) | pest or weed control at 10 ppm (Cnaphalocrocis medinalis; dose 10 ppm, spray, 6 days) | pest or weed control at 0.1 ppm (Spodoptera litura; dose 0.1 ppm, spray, 6 days) | pest or weed control at 1 ppm (Spodoptera litura; dose 1 ppm, spray, 6 days) | pest or weed control at 10 ppm (Spodoptera litura; dose 10 ppm, spray, 6 days) | pest or weed control at 0.1 ppm (Mythimna separata; dose 0.1 ppm, spray, 6 days) | pest or weed control at 1 ppm (Mythimna separata; dose 1 ppm, spray, 6 days) | pest or weed control at 10 ppm (Mythimna separata; dose 10 ppm, spray, 6 days) | pest or weed control at 0.1 ppm (Chilo suppressalis; dose 0.1 ppm, spray, 6 days) | pest or weed control at 1 ppm (Chilo suppressalis; dose 1 ppm, spray, 6 days) | pest or weed control at 10 ppm (Chilo suppressalis; dose 10 ppm, spray, 6 days)
